Source: PubChem BioAssay (NCI)
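The compound was tested at five concentrations on cells cultured in 96-well plates, with a 48-hour exposure period. At the TGI there is no net growth.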

Columns and labels:
Assay in all cases: NCI-60 cell line screen, 48 h
COLO 205 colon = system: COLO 205 colon
U251 CNS = system: U251 CNS
SR leukemia = system: SR leukemia
XF 498 CNS = system: XF 498 CNS
HOP-62 NSCLC = system: HOP-62 NSCLC
SK-MEL-5 melanoma = system: SK-MEL-5 melanoma
IGROV1 ovarian = system: IGROV1 ovarian
EKVX NSCLC = system: EKVX NSCLC
ACHN renal = system: ACHN renal
UACC-257 melanoma = system: UACC-257 melanoma
RXF 393 renal = system: RXF 393 renal
MDA-N = system: MDA-N
MALME-3M melanoma = system: MALME-3M melanoma
SK-OV-3 ovarian = system: SK-OV-3 ovarian
M19-MEL melanoma = system: M19-MEL melanoma
DMS 273 small cell lung = system: DMS 273 small cell lung
SF-295 CNS = system: SF-295 CNS
MOLT-4 leukemia = system: MOLT-4 leukemia
DMS 114 small cell lung = system: DMS 114 small cell lung
SK-MEL-28 melanoma = system: SK-MEL-28 melanoma
RXF-631 renal = system: RXF-631 renal
TK-10 renal = system: TK-10 renal
KM12 colon = system: KM12 colon
UO-31 renal = system: UO-31 renal
OVCAR-5 ovarian = system: OVCAR-5 ovarian
HCT-116 colon = system: HCT-116 colon
SK-MEL-2 melanoma = system: SK-MEL-2 melanoma
SNB-19 CNS = system: SNB-19 CNS
UACC-62 melanoma = system: UACC-62 melanoma
SNB-75 CNS = system: SNB-75 CNS
OVCAR-8 ovarian = system: OVCAR-8 ovarian
HT29 colon = system: HT29 colon
NCI-H226 lung = system: NCI-H226 lung
786-0 renal = system: 786-0 renal
NCI-H522 lung = system: NCI-H522 lung
NCI-H460 lung = system: NCI-H460 lung
KM20L2 colon = system: KM20L2 colon
K-562 leukemia = system: K-562 leukemia
LXFL 529 NSCLC = system: LXFL 529 NSCLC
CCRF-CEM leukemia = system: CCRF-CEM leukemia
HOP-18 NSCLC = system: HOP-18 NSCLC
NCI-H23 lung = system: NCI-H23 lung
SW-620 colon = system: SW-620 colon
SNB-78 CNS = system: SNB-78 CNS
RPMI-8226 leukemia = system: RPMI-8226 leukemia
A549 NSCLC = system: A549 NSCLC
OVCAR-4 ovarian = system: OVCAR-4 ovarian
M14 melanoma = system: M14 melanoma
LOX IMVI melanoma = system: LOX IMVI melanoma
SF-268 CNS = system: SF-268 CNS
HCT-15 colon = system: HCT-15 colon
SN12C renal = system: SN12C renal

With `CCN(CC)c1ccc(C(=C2C=CC(=[N+](CC)CC)C=C2)c2ccc(N(CC)CC)cc2)cc1` the TGI (COLO 205 colon) was 0.503 µM, the TGI (U251 CNS) was 1.31 µM and the TGI (SR leukemia) was 0.582 µM. The TGI (XF 498 CNS) was 0.0815 µM, the TGI (HOP-62 NSCLC) was 1.58 µM and the TGI (SK-MEL-5 melanoma) was 0.237 µM. For the same compound, the TGI (IGROV1 ovarian) was 1.18 µM, the TGI (EKVX NSCLC) was 1.54 µM and the TGI (ACHN renal) was 0.348 µM. For the same compound, the TGI (UACC-257 melanoma) was 1.01 µM, the TGI (RXF 393 renal) was 1.04 µM and the TGI (MDA-N) was 1.16 µM. For the same compound, the TGI (MALME-3M melanoma) was 0.588 µM, the TGI (SK-OV-3 ovarian) was 0.624 µM and the TGI (M19-MEL melanoma) was 1.31 µM. For the same compound, the TGI (DMS 273 small cell lung) was 1.15 µM, the TGI (SF-295 CNS) was 1.11 µM and the TGI (MOLT-4 leukemia) was 1.78 µM. For the same compound, the TGI (DMS 114 small cell lung) was 0.787 µM, the TGI (SK-MEL-28 melanoma) was 1.82 µM and the TGI (RXF-631 renal) was 1.18 µM. It also gave a TGI (TK-10 renal) of 1.45 µM, a TGI (KM12 colon) of 1.18 µM and a TGI (UO-31 renal) of 0.724 µM. For the same compound, the TGI (OVCAR-5 ovarian) was 1.06 µM, the TGI (HCT-116 colon) was 1.31 µM and the TGI (SK-MEL-2 melanoma) was 0.687 µM. For the same compound, the TGI (SNB-19 CNS) was 1.79 µM, the TGI (UACC-62 melanoma) was 1.52 µM and the TGI (SNB-75 CNS) was 1.44 µM.

`CC(=O)O[C@]12CCCCCCC1C1(O)C(O)CCC[C@H]12` (stereo partly drawn) was tested, and the TGI (OVCAR-8 ovarian) was > 100 µM, the TGI (COLO 205 colon) was > 100 µM and the TGI (U251 CNS) was > 100 µM. For the same compound, the TGI (SR leukemia) was > 100 µM, the TGI (HT29 colon) was > 100 µM and the TGI (XF 498 CNS) was > 100 µM. The TGI (HOP-62 NSCLC) was > 100 µM, the TGI (SK-MEL-5 melanoma) was > 100 µM and the TGI (NCI-H226 lung) was > 100 µM. For the same compound, the TGI (786-0 renal) was > 100 µM, the TGI (EKVX NSCLC) was > 100 µM and the TGI (ACHN renal) was > 100 µM. The TGI (UACC-257 melanoma) was > 100 µM, the TGI (RXF 393 renal) was > 100 µM and the TGI (NCI-H522 lung) was > 100 µM. For the same compound, the TGI (MALME-3M melanoma) was > 100 µM, the TGI (SK-OV-3 ovarian) was > 100 µM and the TGI (M19-MEL melanoma) was > 100 µM. For the same compound, the TGI (DMS 273 small cell lung) was > 100 µM, the TGI (NCI-H460 lung) was > 100 µM and the TGI (KM20L2 colon) was > 100 µM. The TGI (SF-295 CNS) was > 100 µM, the TGI (K-562 leukemia) was > 100 µM and the TGI (LXFL 529 NSCLC) was > 100 µM. For the same compound, the TGI (MOLT-4 leukemia) was > 100 µM, the TGI (DMS 114 small cell lung) was > 100 µM and the TGI (CCRF-CEM leukemia) was > 100 µM. For the same compound, the TGI (HOP-18 NSCLC) was > 100 µM, the TGI (NCI-H23 lung) was > 100 µM and the TGI (SK-MEL-28 melanoma) was > 100 µM. For the same compound, the TGI (SW-620 colon) was > 100 µM, the TGI (SNB-78 CNS) was > 100 µM and the TGI (RPMI-8226 leukemia) was > 100 µM. The TGI (A549 NSCLC) was > 100 µM, the TGI (OVCAR-4 ovarian) was > 100 µM and the TGI (TK-10 renal) was > 100 µM. The TGI (M14 melanoma) was > 100 µM, the TGI (LOX IMVI melanoma) was > 100 µM and the TGI (KM12 colon) was > 100 µM. The TGI (SF-268 CNS) was > 100 µM, the TGI (HCT-15 colon) was > 100 µM and the TGI (UO-31 renal) was > 100 µM. For the same compound, the TGI (HCT-116 colon) was > 100 µM, the TGI (SK-MEL-2 melanoma) was > 100 µM and the TGI (SN12C renal) was > 100 µM. The TGI (SNB-19 CNS) was > 100 µM, the TGI (UACC-62 melanoma) was > 100 µM and the TGI (SNB-75 CNS) was > 100 µM.
